Reference: US20260166122A1, “USE OF MICROPEPTIDE MIAC” (NANJING ANJI BIOTECHNOLOGY CO., LTD, priority 2023, published 2026)
Read-outs that look alike come from different tables or passages of the source. Ends that are not written are not given here.

How the values were obtained:
[1] = system: human esophageal carcinoma cells Eca-109; format: cell-based; details: 72 h
[2] = system: human esophageal carcinoma cells CaES-17; format: cell-based; details: 72 h
[3] = system: human breast cancer cells MDA-MB-231; format: cell-based; details: 72 h
[4] = system: human breast cancer cells MCF-7; format: cell-based; details: 72 h
[5] = system: human non-small cell lung cancer cells NCI-H1650; format: cell-based; details: 72 h
[6] = system: human lung giant cell carcinoma cells 95-D; format: cell-based; details: 72 h
[7] = system: prostate cancer Du145 cells; assay: transwell migration inhibition, Du145; format: cell-based, human; details: 48 h
Description: (§1) Human prostate cancer, cervical cancer, osteosarcoma, ovarian cancer, melanoma, and hepatocellular carcinoma cells were inoculated into transwell chambers, with 100 μL per well; for an administration group, 100 μL of a micropeptide MIAC was added to each of the chambers at a different dose; and no medicament was added to a blank group. Then, 0.6 mL of a complete medium comprising 10% FBS was added to transwell lower chambers to stimulate cell migration, followed by incubation at 37° C. with 5% CO2 for 48 h. The culture medium in the wells was discarded, and the cells were fixed with methanol at room temperature for 30 min, stained with 0.1% crystal violet at room temperature for 10 min, and rinsed thoroughly with clear water; the unmigrated cells in the upper layer were wiped off with a cotton swab; and the migrated cells were observed under a microscope, and four visual fields were selected for photography and counting. The migration inhibition rate (MI) was calculated using the following formula: […]
(§2) where Ntest represents the number of migrated cells in the administration group, and Ncontrol represents the number of migrated cells in the blank control group.

[8] = system: cervical cancer Hela cells; assay: transwell migration inhibition, Hela; format: cell-based, human; details: 48 h
Description: as §1, §2

osteosarcoma MG-63 cells = assay: transwell migration inhibition, MG-63; format: cell-based, human; details: 48 h
Description: as §1, §2

[9] = system: ovarian cancer SKOV3 cells; assay: transwell migration inhibition, SKOV3; format: cell-based, human; details: 48 h
Description: as §1, §2

[10] = system: malignant melanoma A375 cells; assay: transwell migration inhibition, A375; format: cell-based, human; details: 48 h
Description: as §1, §2

[11] = system: hepatocellular carcinoma Hep3B cells; assay: transwell migration inhibition, Hep3B; format: cell-based, human; details: 48 h
Description: as §1, §2

[12] = system: human hepatocellular carcinoma Hep3B cells; assay: subcutaneously transplanted Hep3B tumor in nude mice; format: in vivo, BALB/c nude mouse; details: Hep3B subcutaneous transplanted tumor, BALB/c nude mice, 5, 10, 15, 20 mg/kg; dose-dependent
Description: Human hepatocellular carcinoma Hep3B cells were cultured in large quantities and digested with a 0.25% trypsin solution; and the cell suspension after digestion termination was centrifuged at 1000 rpm for 5 minutes, and the cells were resuspended in a serum-free MEM medium and then counted to adjust the cell concentration to 5×10^7 cells/mL. Each BALB/c nude mouse (4-6 weeks old, female, weighing 14-16 g, adaptively housed in an SPF animal breeding room for 1 week) was inoculated with 100 μL of the cell suspension in the left axilla, with an inoculated cell amount of 5×10^6 cells. After inoculation, the tumor growth at the inoculation site of nude mice was closely observed. On the 7th day after inoculation, white nodules appeared at the inoculation site, which could be moved subcutaneously upon touch. As the tumor tissue grew, a hard tumor mass gradually formed at the inoculation site. […] The volume of the transplanted tumor was measured and recorded every two days, and the formula for calculating the tumor volume (TV) was: tumor volume=0.5×a×b^2, where a is the length (mm) of the transplanted tumor and b is the width (mm) of the transplanted tumor.

## MERAGVPGFSPRRSSVEAKMQSTSCSVRKSSTVTAWPAVVLLLSWGQRRGG [MIAC, micropeptide inhibiting actin cytoskeleton]
[1]; Eca-109, 50 μM
  OD: 1.072 ± 0.037
[1]; Eca-109, 100 μM
  OD: 0.656 ± 0.045
[1]; Eca-109, 200 μM
  OD: 0.394 ± 0.039
[2]; CaES-17, 50 μM
  OD: 1.168 ± 0.044
[2]; CaES-17, 100 μM
  OD: 0.672 ± 0.051
[2]; CaES-17, 200 μM
  OD: 0.466 ± 0.022
[3]; MDA-MB-231, 50 μM
  OD: 0.777 ± 0.050
[3]; MDA-MB-231, 100 μM
  OD: 0.378 ± 0.058
[3]; MDA-MB-231, 200 μM
  OD: 0.206 ± 0.016
[4]; MCF-7, 50 μM
  OD: 1.281 ± 0.040
[4]; MCF-7, 100 μM
  OD: 0.973 ± 0.027
[4]; MCF-7, 200 μM
  OD: 0.814 ± 0.047
[5]; NCI-H1650, 50 μM
  OD: 1.127 ± 0.022
[5]; NCI-H1650, 100 μM
  OD: 0.955 ± 0.031
[5]; NCI-H1650, 200 μM
  OD: 0.779 ± 0.057
[6]; 50 μM
  OD: 1.188 ± 0.022
[6]; 100 μM
  OD: 0.863 ± 0.054
[6]; 200 μM
  OD: 0.341 ± 0.010
[7]; Du145, 3.125 μmol/L
  Inhibition rate (%): 39.23%
  Number of migrated cells: 349.3 ± 98.5
[7]; Du145, 6.25 μmol/L
  Inhibition rate (%): 69.77%
  Number of migrated cells: 173.8 ± 48.8
[7]; Du145, 12.5 μmol/L
  Inhibition rate (%): 82.51%
  Number of migrated cells: 100.5 ± 11.8
[7]; Du145, 25 μmol/L
  Inhibition rate (%): 91.87%
  Number of migrated cells: 46.8 ± 8.5
[7]; Du145, 50 μmol/L
  Inhibition rate (%): 94.56%
  Number of migrated cells: 31.3 ± 8.4
[8]; 6.25 μmol/L
  Inhibition rate (%): 12.76%
  Number of migrated cells: 475.0 ± 53.3
[8]; 12.5 μmol/L
  Inhibition rate (%): 39.23%
  Number of migrated cells: 296.8 ± 45.0
[8]; 25 μmol/L
  Inhibition rate (%): 33.83%
  Number of migrated cells: 360.3 ± 119.4
[8]; 50 μmol/L
  Inhibition rate (%): 61.30%
  Number of migrated cells: 210.5 ± 66.6
Osteosarcoma MG-63 cells; MG-63, 3.125 μmol/L
  Inhibition rate (%): 64.05%
  Number of migrated cells: 129.5 ± 19.9
Osteosarcoma MG-63 cells; MG-63, 6.25 μmol/L
  Inhibition rate (%): 83.21%
  Number of migrated cells: 60.5 ± 26.7
Osteosarcoma MG-63 cells; MG-63, 12.5 μmol/L
  Inhibition rate (%): 90.98%
  Number of migrated cells: 32.5 ± 6.0
Osteosarcoma MG-63 cells; MG-63, 25 μmol/L
  Inhibition rate (%): 93.13%
  Number of migrated cells: 24.8 ± 9.6
[9]; SKOV3, 12.5 μmol/L
  Inhibition rate (%): 17.17%
  Number of migrated cells: 907.3 ± 46.5
[9]; SKOV3, 25 μmol/L
  Inhibition rate (%): 52.28%
  Number of migrated cells: 523.8 ± 35.3
[9]; SKOV3, 50 μmol/L
  Inhibition rate (%): 62.04%
  Number of migrated cells: 415.8 ± 21.7
[10]; A375, 12.5 μmol/L
  Inhibition rate (%): 46.18%
  Number of migrated cells: 139.3 ± 28.5
[10]; A375, 25 μmol/L
  Inhibition rate (%): 36.52%
  Number of migrated cells: 164.3 ± 40.1
[10]; A375, 50 μmol/L
  Inhibition rate (%): 48.70%
  Number of migrated cells: 132.8 ± 35.1
[11]; 12.5 μmol/L
  Inhibition rate (%): 66.54%
  Number of migrated cells: 110.8 ± 29.3
[11]; 25 μmol/L
  Inhibition rate (%): 65.33%
  Number of migrated cells: 114.8 ± 27.1
[11]; 50 μmol/L
  Inhibition rate (%): 64.95%
  Number of migrated cells: 116.0 ± 26.1
[12]
  in vivo tumor growth (tumor volume, tumor weight) versus blank control: significantly inhibit the in vivo tumor growth
